Some test systems named below: 786-0 renal; A549 NSCLC; NCI-H460 lung; MOLT-4 leukemia; RXF 393 renal; SK-MEL-2 melanoma; UACC-62 melanoma.
Common to all, as to assay: NCI-60 cell line screen, 48 h

Values joined by “and” are separate entries in the source; they are usually repeats but may differ in a detail not shown here. Identical values can stand only once.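 All cell lines were grown in 96-well plates and treated with compound for 48 hours. GI50 marks 50% less growth. TGI denotes the concentration required for complete inhibition of growth.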

On to `CC(C)NC[C@@H](C(=O)N1CCN(c2ncnc3c2[C@H](C)C[C@H]3O)CC1)c1ccc(Cl)cc1`, for which the GI50 was 0.334 µM and 0.546 µM with 786-0 renal; > 10 µM and 5.05 µM in the assay on A549 NSCLC; 1.47 µM and 2.33 µM in the assay with NCI-H460 lung; 0.676 µM and 0.747 µM in the assay with MOLT-4 leukemia; 0.293 µM and 0.341 µM in the assay with RXF 393 renal; > 10 µM and 33 µM in the assay on SK-MEL-2 melanoma. The GI50 in the assay with UACC-62 melanoma was 1.9 µM and 6 µM. Besides, the TGI with 786-0 renal was more than 100 µM; with A549 NSCLC it was more than 100 µM; with NCI-H460 lung it was more than 100 µM; in the assay with MOLT-4 leukemia, > 10 µM and 73.9 µM; with RXF 393 renal it was 4.85 µM and 5.55 µM; in the assay on SK-MEL-2 melanoma, more than 80.2 µM. Further, the TGI in the assay with UACC-62 melanoma is more than 100 µM.

Turning to `COc1cc(Cl)cc(-c2nn(C(=O)NCCN3CCOCC3)cc2-c2ccncc2)c1`, the GI50 in the assay on 786-0 renal is 6.88 µM; in the assay on A549 NSCLC, 9.97 µM; with NCI-H460 lung, 3.81 µM; in the assay on MOLT-4 leukemia it was 3.78 µM; in the assay with RXF 393 renal, 2.67 µM; in the assay with SK-MEL-2 melanoma, 10.9 µM. In addition, the GI50 in the assay with UACC-62 melanoma is 3.72 µM. Moreover, the TGI in the assay on 786-0 renal was 37.9 µM; in the assay with A549 NSCLC it was more than 100 µM; in the assay with NCI-H460 lung, more than 100 µM; with MOLT-4 leukemia, more than 100 µM; in the assay with RXF 393 renal, 19.9 µM; in the assay with SK-MEL-2 melanoma, 44.3 µM. Also, the TGI with UACC-62 melanoma turned out to be 20.4 µM.

Take `COc1cc(C2c3cc4c(cc3[C@@H](Nc3ccc(C#N)cc3)C3COC(=O)[C@H]23)OCO4)cc(OC)c1O` (stereo partly specified): the GI50 in the assay on 786-0 renal was 0.112 µM; in the assay on A549 NSCLC it was 0.107 µM; with NCI-H460 lung, 0.0174 µM and 0.0261 µM; in the assay on MOLT-4 leukemia it was 0.0307 µM; in the assay on RXF 393 renal, 2.53 µM; in the assay on SK-MEL-2 melanoma, 1.77 µM and 8.87 µM. The GI50 with UACC-62 melanoma is 0.783 µM. Moreover, the TGI was 1.92 µM and 1.19 µM in the assay with 786-0 renal; 6.1 µM and 2.35 µM and 2.96 µM in the assay with A549 NSCLC; 4.96 µM and 9.01 µM in the assay with RXF 393 renal; 9.01 µM and 14.1 µM in the assay on UACC-62 melanoma.

In the case of `O=C(Cn1ccc(=O)[nH]c1=O)Nc1ccc(C(=O)O)c(O)c1`, the TGI in the assay on 786-0 renal, in the assay on A549 NSCLC, in the assay with NCI-H460 lung, in the assay on MOLT-4 leukemia, with RXF 393 renal and in the assay with SK-MEL-2 melanoma was more than 100 µM in each case. In the assay on UACC-62 melanoma, this compound registered a TGI of more than 100 µM.

Consider `O=CNc1c(Cl)cc2c(c1Cl)Cc1cc([N+](=O)[O-])ccc1-2`, for which the GI50 in the assay with 786-0 renal is 20 µM; in the assay with A549 NSCLC, 4.55 µM; in the assay on NCI-H460 lung it was 2.88 µM; with MOLT-4 leukemia, 2.13 µM; in the assay with RXF 393 renal, 10.8 µM; in the assay with SK-MEL-2 melanoma, 27.9 µM. In the assay with UACC-62 melanoma, the GI50 is 3.98 µM. Moreover, the TGI is more than 77 µM in the assay with 786-0 renal; more than 100 µM in the assay on A549 NSCLC; 39.5 µM in the assay on NCI-H460 lung; more than 100 µM with MOLT-4 leukemia; 46.4 µM in the assay on RXF 393 renal; more than 86.6 µM in the assay on SK-MEL-2 melanoma. The compound also registered a TGI with UACC-62 melanoma of more than 100 µM.

For `CCCC[C@H](NC(=O)[C@H]1CCCN1C)C(=O)N(C)[C@H](C[C@@H](OC(C)=O)c1nc(C(=O)N[C@@H](Cc2ccccc2)C[C@H](C)C(=O)OCC)cs1)C(C)C`, the GI50 is 0.0171 µM in the assay with 786-0 renal; 0.0501 µM with A549 NSCLC; 0.0105 µM in the assay with NCI-H460 lung; 0.0258 µM with MOLT-4 leukemia; 0.00745 µM in the assay with RXF 393 renal; 0.00613 µM with SK-MEL-2 melanoma. Besides, in the assay with UACC-62 melanoma, the GI50 was 0.00489 µM. Also, the TGI in the assay with 786-0 renal was 9.96 µM; in the assay with A549 NSCLC, more than 33.3 µM; in the assay with NCI-H460 lung, 4.04 µM; in the assay on MOLT-4 leukemia it was 15.5 µM; in the assay on RXF 393 renal, 11.3 µM; with SK-MEL-2 melanoma, 8.71 µM. For the same compound, the TGI in the assay on UACC-62 melanoma was more than 33.3 µM.

On to `O=C1OC(=O)C(c2c[nH]c3ccccc23)=C1c1c[nH]c2ccccc12`, for which the GI50 with 786-0 renal, in the assay with A549 NSCLC, with NCI-H460 lung, with MOLT-4 leukemia, in the assay with RXF 393 renal and with SK-MEL-2 melanoma was more than 25 µM in each case. The GI50 in the assay on UACC-62 melanoma was more than 25 µM. Moreover, the TGI with 786-0 renal, with A549 NSCLC, in the assay on NCI-H460 lung, in the assay with MOLT-4 leukemia, in the assay with RXF 393 renal and with SK-MEL-2 melanoma was more than 25 µM each time. In the assay with UACC-62 melanoma, this compound registered a TGI of more than 25 µM.

Take `Nc1ccn(Cc2ccc(C34CC5CC(CC(C5)C3)C4)c(O)c2)c(=O)n1`: the GI50 was 47.7 µM with 786-0 renal; more than 100 µM with NCI-H460 lung; 54.4 µM with MOLT-4 leukemia; 76.1 µM in the assay on SK-MEL-2 melanoma; more than 100 µM in the assay on UACC-62 melanoma. In addition, the TGI in the assay with 786-0 renal, in the assay with NCI-H460 lung, with MOLT-4 leukemia, in the assay on SK-MEL-2 melanoma and in the assay on UACC-62 melanoma was more than 100 µM throughout.

In the case of `CCN(CC)c1ccc(C(=C2C=CC(=[N+](CC)Cc3cccc(S(=O)(=O)O)c3)C=C2)c2ccc(N(CC)Cc3cccc(S(=O)(=O)O)c3)cc2)cc1`, the GI50 was 12.9 µM in the assay on 786-0 renal; 4.28 µM with A549 NSCLC; 3.93 µM in the assay on NCI-H460 lung; 11.1 µM with MOLT-4 leukemia; 7.94 µM in the assay on RXF 393 renal; 10.5 µM in the assay on SK-MEL-2 melanoma. Moreover, in the assay on UACC-62 melanoma, the GI50 is 13 µM. In addition, the TGI is 98.9 µM in the assay with 786-0 renal; more than 100 µM in the assay with A549 NSCLC; 39.1 µM in the assay on NCI-H460 lung; more than 89.7 µM in the assay with MOLT-4 leukemia; 76.1 µM in the assay on RXF 393 renal; more than 92.2 µM with SK-MEL-2 melanoma. For the same compound, in the assay with UACC-62 melanoma, the TGI was 87 µM.

As for `Nc1c(C(=O)Nc2cccc([N+](=O)[O-])c2)sc2nc3c(cc12)C(O)CCC3` (stereo unspecified), the GI50 in the assay on 786-0 renal was 13.5 µM; in the assay with A549 NSCLC, 5.82 µM; in the assay on NCI-H460 lung it was 4.93 µM; in the assay with MOLT-4 leukemia it was 5.74 µM; in the assay with RXF 393 renal, 6.76 µM; in the assay on SK-MEL-2 melanoma it was 5.4 µM. Moreover, in the assay with UACC-62 melanoma, the GI50 was 5.93 µM. Moreover, the TGI was more than 100 µM in the assay on 786-0 renal; more than 100 µM in the assay on A549 NSCLC; more than 100 µM in the assay with NCI-H460 lung; more than 100 µM in the assay with MOLT-4 leukemia; more than 65.8 µM in the assay on RXF 393 renal; more than 92.2 µM with SK-MEL-2 melanoma. This compound displayed a TGI with UACC-62 melanoma of more than 100 µM.

The values are drawn from PubChem BioAssay (NCI).
